Some test systems named below: MALME-3M melanoma; NCI-H522 lung; HL-60(TB) leukemia; NCI-H460 lung; U251 CNS; RXF 393 renal; SK-MEL-28 melanoma; DU-145 prostate; HOP-62 NSCLC; HCC-2998 colon.
Holding throughout (assay): inhibition of tumour cell growth, NCI panel, 48 h

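All cell lines were grown in 96-well plates and treated with compound for 48 hours. GI50: concentration for 50% inhibition of growth. TGI denotes the concentration required for complete inhibition of growth.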 A value given as a limit tells only on which side of the number the result lay.

The text below walks through data of PubChem BioAssay (NCI).

Regarding `O=C(CC(=O)Nc1ccccc1)NNC(Sc1ccccc1)c1cc(N=Nc2ccc(Br)cc2)ccc1O` (stereo unspecified), the TGI in the experiment with MALME-3M melanoma was greater than 10 µM; in the experiment with NCI-H522 lung it was greater than 10 µM; with HL-60(TB) leukemia, 1.9 µM; in the experiment on NCI-H460 lung, greater than 10 µM; in the experiment on U251 CNS, greater than 10 µM; with RXF 393 renal, greater than 10 µM. Further, the TGI in the experiment on SK-MEL-28 melanoma, in the experiment on DU-145 prostate, with HOP-62 NSCLC and with HCC-2998 colon was greater than 10 µM in each case.

Regarding `COc1cc(Nc2ccc3c(c2)CCC3)nc(OC)n1`, the TGI is greater than 100 µM in the experiment on MALME-3M melanoma; 84.5 µM with NCI-H522 lung; greater than 100 µM in the experiment on HL-60(TB) leukemia; greater than 100 µM with NCI-H460 lung; greater than 100 µM in the experiment on U251 CNS; greater than 100 µM in the experiment on SK-MEL-28 melanoma. For the same molecule, the TGI in the experiment on DU-145 prostate was greater than 100 µM; in the experiment with HOP-62 NSCLC, greater than 100 µM; in the experiment with HCC-2998 colon, 61.6 µM.

Consider `O=C(CNc1ccc(Cl)cc1Cl)Nn1c(-c2ccccc2)nc2ccccc2c1=O`, for which the TGI in the experiment with MALME-3M melanoma is 34.6 µM; in the experiment on NCI-H522 lung it was 25.7 µM; with HL-60(TB) leukemia, greater than 100 µM; with NCI-H460 lung, 30.5 µM; with RXF 393 renal, 36.5 µM; with SK-MEL-28 melanoma it was 43.7 µM. Moreover, the TGI in the experiment on DU-145 prostate turned out to be 27.5 µM; in the experiment on HCC-2998 colon, 31.8 µM.

`COc1cc2c(cc1OCCCCCN1CCN(c3ncnc4ccccc34)CC1)N=CC1CCCN1C2=O` (stereo unspecified): the GI50 in the experiment with MALME-3M melanoma is 0.0303 µM; in the experiment on HL-60(TB) leukemia, 0.0254 µM; with U251 CNS, 0.0252 µM; in the experiment with RXF 393 renal, 0.0253 µM; with SK-MEL-28 melanoma it was 0.0264 µM; in the experiment with DU-145 prostate it was 0.0271 µM. Besides, the figures for the GI50 with HOP-62 NSCLC and with HCC-2998 colon were 0.0257 µM and 0.0178 µM, respectively. The TGI in the experiment on MALME-3M melanoma turned out to be 0.0618 µM; with NCI-H522 lung it was 0.0269 µM; in the experiment with U251 CNS it was 3.98 µM; in the experiment with RXF 393 renal, 0.0454 µM; in the experiment with SK-MEL-28 melanoma, 0.0569 µM; with DU-145 prostate, 0.97 µM. Also, the values for the TGI in the experiment with HOP-62 NSCLC and in the experiment on HCC-2998 colon were 0.358 µM and 0.0349 µM, respectively.

On to `Nc1ncc2c(n1)-c1ccccc1OC2N1CCCC1` (stereo unspecified), for which the TGI in the experiment with MALME-3M melanoma is greater than 100 µM; with NCI-H522 lung, greater than 100 µM; in the experiment on HL-60(TB) leukemia, 51.7 µM; with NCI-H460 lung, greater than 100 µM; in the experiment with U251 CNS, greater than 100 µM; with RXF 393 renal it was greater than 100 µM. The TGI with SK-MEL-28 melanoma, in the experiment on DU-145 prostate and with HOP-62 NSCLC was greater than 100 µM throughout.

Regarding `O=C1CSC2(CC(/C=C/c3cccs3)=NN2c2cccc(S(=O)(=O)O)c2)N1c1nc2ccccc2s1` (stereo unspecified), the TGI in the experiment on MALME-3M melanoma, in the experiment with NCI-H522 lung, with HL-60(TB) leukemia, with NCI-H460 lung, in the experiment with U251 CNS and in the experiment with RXF 393 renal was greater than 100 µM throughout. Moreover, the TGI in the experiment with SK-MEL-28 melanoma, in the experiment with DU-145 prostate and in the experiment with HCC-2998 colon was greater than 100 µM in each case.

Turning to `C=C(C)[C@H]1C2=CC(C(=O)OC)=C(C[C@H](C(=C)C)[C@@H](O)[C@@H](O)C3=C[C@H]1OC3=O)O2`, the TGI in the experiment on MALME-3M melanoma, in the experiment on NCI-H522 lung, in the experiment on HL-60(TB) leukemia, in the experiment on U251 CNS, with RXF 393 renal and in the experiment on DU-145 prostate was greater than 100 µM throughout. In addition, the TGI in the experiment with HOP-62 NSCLC is greater than 100 µM.

With `CC1(C)C=CC(=O)C(O)C(C)(C)C1=O` (stereo unspecified), the TGI was greater than 100 µM in the experiment on MALME-3M melanoma; 89.4 µM with NCI-H522 lung; greater than 100 µM in the experiment on HL-60(TB) leukemia; greater than 100 µM with NCI-H460 lung; greater than 100 µM in the experiment on U251 CNS; greater than 100 µM in the experiment on RXF 393 renal. Besides, the TGI in the experiment with SK-MEL-28 melanoma, in the experiment on DU-145 prostate and in the experiment on HOP-62 NSCLC was greater than 100 µM in each case.

For `C=C(C)CNCCN`, the TGI in the experiment on MALME-3M melanoma, in the experiment on NCI-H522 lung, with HL-60(TB) leukemia, with NCI-H460 lung, in the experiment on U251 CNS and with RXF 393 renal was greater than 100 µM in each case. Moreover, the TGI in the experiment with SK-MEL-28 melanoma, with DU-145 prostate and in the experiment with HOP-62 NSCLC was greater than 100 µM throughout.

As to `CCOC(=O)/C(C(C)=O)=C(\OC(C)=O)c1ccncc1C(=O)O`, the TGI with MALME-3M melanoma, in the experiment on NCI-H522 lung, in the experiment with HL-60(TB) leukemia, in the experiment with NCI-H460 lung, in the experiment with U251 CNS and in the experiment with RXF 393 renal was greater than 100 µM in each case. The TGI in the experiment with SK-MEL-28 melanoma, in the experiment on DU-145 prostate and with HCC-2998 colon was greater than 100 µM each time.

In the case of `COc1cc(C=O)ccc1O`, the TGI with MALME-3M melanoma, in the experiment on NCI-H522 lung, with HL-60(TB) leukemia, in the experiment on NCI-H460 lung, in the experiment on U251 CNS and in the experiment on SK-MEL-28 melanoma was greater than 100 µM each time. For the same molecule, the TGI in the experiment with DU-145 prostate, in the experiment with HOP-62 NSCLC and in the experiment on HCC-2998 colon was greater than 100 µM in each case.

In the case of `C[C@@H]1CCC2[C@@H](C)[C@@H](O[C@H]3O[C@@H]4O[C@@]5(C)CCC6[C@H](C)CCC([C@H]3C)[C@]64OO5)O[C@@H]3O[C@@]4(C)CCC1[C@@]23OO4` (stereo partly specified), the TGI was greater than 25 µM in the experiment with NCI-H522 lung; greater than 5.22 µM in the experiment on HL-60(TB) leukemia; greater than 25 µM with NCI-H460 lung; greater than 25 µM in the experiment on U251 CNS; greater than 25 µM with RXF 393 renal; greater than 25 µM in the experiment with SK-MEL-28 melanoma. Also, the TGI with DU-145 prostate, in the experiment on HOP-62 NSCLC and with HCC-2998 colon was greater than 25 µM each time.

`COc1cccc2c1OC(c1cccc3ccccc13)C([N+](=O)[O-])=C2` (stereo unspecified): the TGI with MALME-3M melanoma was 4.08 µM; in the experiment with NCI-H522 lung, 3.21 µM; in the experiment on HL-60(TB) leukemia, greater than 100 µM; with NCI-H460 lung, 3.77 µM; in the experiment with U251 CNS, 2.9 µM; in the experiment on RXF 393 renal it was 2.58 µM. Moreover, the TGI with SK-MEL-28 melanoma was determined as 2.87 µM; in the experiment on DU-145 prostate, 8.9 µM; in the experiment with HOP-62 NSCLC it was 5.36 µM.

As for `C=C(CN(C)C)C(=O)c1ccc(C(=O)C(=C)CN(C)C)cc1`, the TGI in the experiment with MALME-3M melanoma, in the experiment on NCI-H522 lung, in the experiment with HL-60(TB) leukemia, in the experiment on NCI-H460 lung, in the experiment with U251 CNS and in the experiment with RXF 393 renal was greater than 100 µM each time. In addition, the TGI in the experiment with SK-MEL-28 melanoma, with DU-145 prostate and in the experiment on HCC-2998 colon was greater than 100 µM each time.
